Source: PMC7545175 (Scientific Reports, 2020)
Where two headings read alike, the source gives them in different places.

Key:
[1] = system: BT-549; experiment: Cell viability assay (PrestoBlue, 72 h), BT-549; type: cell-based; conditions: Homo sapiens; for viability at 10 µM: BT-549, 72 h, mean of at least two determinations, within ± 15%, read-out: Survival rate at 10 uM BT-549; for IC50: BT-549
Description: (§1) The cells were seeded in 384-well clear plates with a density of 8 × 10^2 cells/well for MCF-10A and BT-549 cell lines, 1 × 10^3 cells/well for MDA-MB-453, and 2 × 10^3 cells/well for MDA-MB-231 overnight. Then cells were treated with the indicated concentrations of test compounds for 72 h. At the end of incubation, 5 μL of PrestoBlue Cell Viability Reagent (Invitrogen, Carlsbad, CA, USA) was added to each well with 50 μL medium. The plates were incubated for an additional 1.5 h at 37 °C in a humidified 5% CO2 atmosphere; the relative fluorescence unit (RFU) in the reaction mixture will then be recorded (Ex560/Em590) by Victor^2-Vplate reader (PerkinElmer, Waltham, MA, USA). The cell lines were chosen based on the mutation status of PTEN and/or TP53: MCF-10A, the nonmalignant mammary epithelial cell line; BT-549 with mutation of PTEN and TP53; MDA-MB-453 with mutation of PTEN; MDA-MB-231 with mutation of TP53[47].

[2] = system: MDA-MB-453; experiment: Cell viability assay (PrestoBlue, 72 h), MDA-MB-453; type: cell-based; conditions: Homo sapiens; for viability at 10 µM: MDA-MB-453, 72 h, mean of at least two determinations, within ± 15%, read-out: Survival rate at 10 uM MDA-MB-453; for IC50: MDA-MB-453
Description: as §1

[3] = system: MCF10A, a nonmalignant mammary epithelial cell line; experiment: Cell viability assay (PrestoBlue, 72 h), MCF10A; type: cell-based; conditions: for Survival rate at 10 uM MCF10A / MCF-10A Inhibition rate: human, 72 h, 10 µM
Description: as §1

[4] = system: MDA-MB-231; experiment: Cell viability assay (PrestoBlue, 72 h), MDA-MB-231; type: cell-based, human; conditions: for viability at 10 µM / IC50: Homo sapiens; for viability at 10 µM: MDA-MB-231, 72 h, mean of at least two determinations, within ± 15%, read-out: Survival rate at 10 uM MDA-MB-231; for IC50: MDA-MB-231
Description: as §1

[5] = target: mu-opioid receptor (MOR) (Homo sapiens, UniProt P35372); experiment: FLIPR calcium assay in CHO-K1/MOR/Gα15 cells
[6] = Figure 4B, read-out: BT-549 IC50
[7] = Figure 4B, read-out: MDA-MB-453 IC50
[8] = Figure 4B, read-out: MDA-MB-231 IC50

Sequence of mu-opioid receptor (MOR) (P35372 whole entry): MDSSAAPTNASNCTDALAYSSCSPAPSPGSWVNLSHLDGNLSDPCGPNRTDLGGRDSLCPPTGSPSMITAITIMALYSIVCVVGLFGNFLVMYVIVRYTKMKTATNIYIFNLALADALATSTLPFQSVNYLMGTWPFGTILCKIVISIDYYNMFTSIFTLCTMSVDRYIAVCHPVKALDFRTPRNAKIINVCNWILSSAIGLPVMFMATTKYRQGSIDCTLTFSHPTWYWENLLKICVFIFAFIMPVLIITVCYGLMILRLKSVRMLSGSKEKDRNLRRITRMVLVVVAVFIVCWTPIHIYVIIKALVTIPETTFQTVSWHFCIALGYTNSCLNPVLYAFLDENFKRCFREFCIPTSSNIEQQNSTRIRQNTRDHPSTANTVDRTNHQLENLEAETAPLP

EC50 [5] [µM] | SMILES | viability at 10 µM [1] [%] | viability at 10 µM [2] [%] | Cytotoxicity to MCF10A (in words) [3] | Survival rate at 10 uM MCF10A [3] [%] | viability at 10 µM [4] [%] | other results
 | Cn1ncc(Cl)c1C(=O)Nc1ccc2nc(NC(=O)C3CCCCC3)sc2c1 [Compound 6] | 22 | 19 | low cytotoxicity | 6 | 33 | 
 | COc1ccc(C(=O)Nc2nc(-c3ccc(C)cc3C)cs2)cc1 [Compound 16] |  |  |  |  |  | IC50 [1, 6]: > 10 µM; IC50 [2, 7]: 6.3 µM; MCF-10A Inhibition rate [3]: 8%; IC50 [4, 8]: 1.4 µM
 | COC(=O)c1ccc(C(=O)Nc2nc(-c3ccc(C)cc3C)cs2)cc1 [Compound 18] |  |  |  |  |  | IC50 [1, 6]: > 10 µM; IC50 [2, 7]: > 10 µM; MCF-10A Inhibition rate [3]: 4%; Selectivity over nonmalignant mammary epithelial cell (in words) ([3]; versus MDA-MB-231): good selectivity; IC50 [4, 8]: 0.62 µM
 | Nc1c(C(=O)c2ccccc2)sc2nc3c(cc12)CCCC3 [Compound 2] | 16 | 15 | low cytotoxicity | -5 | 34 | 
4.32 | Cc1ccc(C(=O)Nc2cnc3ccccc3c2)cc1C [Compound 27] |  |  |  |  |  | 
 | COC(=O)Nc1nc2ccc(C(=O)c3ccccc3)cc2[nH]1 [Compound 12] | 17 | 22 | low cytotoxicity | 13 | 35 | 
 | Cc1ccc(-c2csc(NC(=O)c3ccc(F)cc3)n2)c(C)c1 [Compound 4] | 106 | 53 | low cytotoxicity | 101 | 35 | 
0.56 | O=C(Nc1ccc(S(=O)(=O)NC2CCCCC2)cc1)C1CCCCC1 [Compound 26] |  |  |  |  |  | 
8.05 | Cc1cc(N2CCN(C)CC2)nc(N2CCN(C(=O)c3ccc(C)c(C)c3)CC2)n1 [Compound 28] |  |  |  |  |  | 
5.71 | CN(CCNC(=O)c1ccc(C(=O)NCCN(C)Cc2ccccc2)cc1)Cc1ccccc1 [Compound 24] |  |  |  |  |  | 
 | Cc1ccc(-c2csc(NC(=O)c3ccc(F)cc3)n2)c(C)c1 [Compound 15] |  |  |  |  |  | IC50 [1, 6]: > 10 µM; IC50 [2, 7]: 9.28 µM; MCF-10A Inhibition rate [3]: -8%; IC50 [4, 8]: 1.89 µM
 | CCN(CC)S(=O)(=O)c1ccc(C(=O)Nc2nc(-c3ccc(Cl)c(Cl)c3)cs2)cc1 [Compound 7] | 54 | 29 | low cytotoxicity | 117 | 6 | IC50 ([1]; Figure 3C, unit inferred, read-out: IC50 values BT-549): > 20 µM; IC50 ([2]; Figure 3C, unit inferred, read-out: IC50 values MDA-MB-453): > 20 µM; IC50 ([4]; Figure 3C, unit inferred, read-out: IC50 values MDA-MB-231): 2.52 µM; Activity toward TNBC cell lines (in words) ([4]; TNBC cell lines MDA-MB-231, BT-549, MDA-MB-453): broader TNBC inhibitions
